From patent EP2050748A1, “Novel fused pyrimidines” (Bayer Schering Pharma Aktiengesellschaft, priority 2007, dated 2009)

Legend:
[1] = test system: phosphorylated GSK3 (Ser9); test: Cellular pGSK3 assay (phospho-GSK3 ELISA); type: cell-based; conditions: Homo sapiens, MCF7 cells, compound incubated 48h
Description: In order to study the cellular activity of the compounds according to the present invention, an ELISA-based assay has been established for the phosphorylated protein glycogen synthetase kinase 3 (GSK3). The assay is based on a solid phase sandwich ELISA that detects endogenous levels of phosphorylated GSK3 using a phospho-GSK3 (Ser9) specific antibody (BioSource International, Inc.; Catalog #KHO0461). After incubation with cell lysates, the coated antibody captures the phosphorylated GSK3 protein. Following extensive washing, GSK3 polyclonal antibody is added to detect the captured phospho-GSK3 protein. Secondary antibody (anti-rabbit IgG-HRP) is then used to recognize the bound detection antibody. After the second incubation and washing to remove all the excess anti-rabbit IgG-HRP, a substrate solution is added, which is acted upon by the bound enzyme to produce color. The intensity of this colored product is directly proportional to the concentration of GSK-3β [pS9] present in the original specimen. MCF7 cells (ATCC HTB-22) were seeded into 96 well fate bottom plates at a density of 10000 cells/well. After 24 h 1 µl each of the compound dilutions (test compounds were dissolved as 10 mM solutions in dimethylsulfoxide (DMSO) and subsequently diluted) were added into each well of the 96 well plates and incubated for 48h at 37°C in a humidified athmosphere containing 5% CO2. Cells were harvested and lysed in cell extraction buffer (10 mM Tris, pH 7.4, 100 mM NaCl, 1 mM EDTA, 1 mM EGTA, 1 mM NaF, 20 mM Na4P2O7, 2 mM Na3VO4, 1% Triton X-100, 10vol% glycerol, 0.1vol% SDS, 0.5vol% deoxycholate, 1 mM phenylmethylsulfonylfluorid (PMSF)). The lysate were centrifuged for 10 min. at 4°C and the supernatant were transferred to a new tube. 50 µl of sample diluent (standard diluent buffer, Biosource) were added and 100 µl of cell lysate transferred into the tube and vortexed. 100 µl of each diluted cell lysate were added to the appropriate ELISA well plate and incubated for 3h at room temperature. The plates were washed 4 times with 1x wash buffer (Biosource). 50 µl of detection antibody (GSK3 (Ser9) detection antibody; BioSource) were added to each well and incubated for 30 min. at room temperature. The washing procedure was repeated between each step. 100µl of HRP-linked secondary antibody (anti-mouse IgG HRP-linked antibody) were added to each well and incubated for 30 min. at room temperature. 100µl of TMB substrate (0.05vol% 3,3',5,5' tetramethylbenzidine, 0.1vol% hydrogen peroxide, complex polypeptides in a buffered solution; Biosource) were added to each well and incubated for 30 min. at room temperature. Finally 100 µl of Stop solution (0.05vol% α and β unsaturated carbonyl compound) were added to each well and the plate were shaked gently for a few seconds. The absorbance was measured at λ = 450 nm (Wallac Victor2; Perkin Elmer, USA) within 30 min. after adding the stop solution. The analysis of the data was performed using a statistical program (Excel; Microsoft, USA) and the IC50 of pGSK3 inhibition was determined.

[2] = test system: phosphorylated Akt protein (Ser473); test: Cellular PI3K / Akt pathway assay (phospho-Akt ELISA); type: cell-based; conditions: Homo sapiens; MCF7 cells, stimulated with ß-Heregulin (20ng/ml), compound incubated 48h, phospho-Akt1 (Ser473) ELISA
Description: In order to study the cellular activity of the compounds according to the present invention, an Enzyme Linked Immunosorbent Assay (ELISA)-based assay has been used specific phospho-AKT. The assay is based on a Sandwich ELISA kit (PathScan™ Phospho-Akt1 (Ser473); Cell Signaling, USA; #7160).
The ELISA Kit detects endogenous levels of phosphorylated Akt protein. A phospho-Akt (Ser473) antibody (Cell Signaling, USA; #9271) has been coated onto the microwells. After incubation with cell lysates, the coated antibody captures the phosphorylated Akt protein. Following extensive washing, Akt1 monoclonal antibody (Cell Signaling, USA; #2967) is added to detect the captured phospho-Akt1 protein. HRP-linked anti-mouse antibody (HRP: horseradish peroxidase; Cell Signaling, USA; #7076) is then used to recognize the bound detection antibody. HRP substrate (= 3,3',5,5'-tetramethylbenzidine (TMB); Cell Signaling, USA; #7160) is added to develop colour. The magnitude of optical density for this developed color is proportional to the quantity of phosphorylated Akt protein.
MCF7 cells (ATCC HTB-22) are seeded into 96 well fate bottom plates at a density of 10000 cells/well. 24 hours after seeding, the cells are serum starved using low-serum medium (IMEM media including 0,1% charcoal treated FCS (FCS: fetal calf serum)). After 24 hours 1 µl each of the compound dilutions (test compounds were dissolved as 10 mM solutions in dimethylsulfoxide (DMSO) and subsequently diluted) are added into each well of the 96 well plates and incubated for 48h at 37°C in a humidified athmosphere containing 5% CO2. To stimulate Akt phosphorylation, ß-Heregulin (20ng/ml β-HRG) is added in parallel to the compounds. Wells containing unstimulated control cells (no β-Heregulin stimulation) are incubated with or without the diluted compound. Wells containing untreated control cells (no compound) are filled with medium containing 0.5% v:v DMSO and are or are not stimulated with β-Heregulin.
Cells are harvested and lysed with brief sonification in 1x x cell lysis buffer (20mM Tris (pH7.5), 150 mM NaCl, 1 mM ethylene diaminetetraacetate (EDTA), 1 mM ethylene glycolbis(2-aminoethyl)-N,N,N',N'-tetraacetic acid (EGTA), 1vol% Triton X-100, 2.5mM sodium pyrophosphate, 1 mM β-glycerolphosphate, 1 mM Na3VO4, 1 µg/ml leupeptin). The lysate is centrifuged for 10 min. at 4°C and the supernatant is transferred to a new tube. 100 µl of sample diluent (0.1vol% Tween-20, 0.1vol% sodium azide in phosphate buffered saline (PBS)) are added to a microcentrifuge tube and 100 µl of cell lysate are transferred into the tube and vortexed. 100 µl of each diluted cell lysate are added to the appropriate ELISA well, and incubated overnight at 4°C. The plates are washed 4 times with 1 x wash buffer (1 vol% tween-20, 0.33vol% thymol, in PBS). Next 100 µl of detection antibody (Akt1 (2H10) monoclonal detection antibody; Cell Signaling, USA; #2967) are added to each well and incubation continued for 1 h at 37°C. The washing procedure is repeated between each step. 100µl of secondary antibody (anti-mouse IgG HRP-linked antibody; Cell Signaling, USA; #7076) are added to each well and incubated for 30 min. at 37°C. Than, 100µl of TMB substrate (0.05% 3,3',5,5' tetramethylbenzidine, 0.1 % hydrogen peroxide, complex polypeptides in a buffered solution; Cell Signaling, USA; #7160) are added to each well and incubated for 30 min. at 25°C. Finally 100 µl of STOP solution (0.05vol% α and β unsaturated carbonyl compound) are added to each well and the plate are shaked gently. The absorbance is measured at λ=450 nm (Wallac Victor2; Perkin Elmer, USA) within 30 min. after adding the STOP solution. The analysis of the data is performed using a statistical program (Excel; Microsoft, USA). Preferred compounds show an inhibitory activity towards Akt phosphorylation below 10µM.

## C=Cc1cnc2nc(-c3ccc(CN4CCC(c5n[nH]c(-c6ccccn6)n5)CC4)cc3)c(-c3ccccc3)cn12 [Example 15, 6-phenyl-7-(4-{[4-(5-pyridin-2-yl-1,2,4-triazol-3-yl)piperidin-1-yl]methyl}phenyl)-3-vinylimidazo[1,2-a]pyrimidine]
[1]
  IC50: 1000 to 10000 nM
[2]
  IC50: < 1000 nM

## c1ccc(-c2cn3ncnc3nc2-c2ccc(CN3CCC(c4n[nH]c(-c5ccccn5)n4)CC3)cc2)cc1 [Example 2, 6-phenyl-5-(4-([4-(5-pyridin-2-yl-1,2,4-triazol-3-yl)piperidin-1-yl]methyl}phenyl)[1,2,4]triazolo[1,5-a]pyrimidine]
[1]
  IC50: 1000 to 10000 nM
[2]
  IC50: < 1000 nM

## c1ccc(-c2cn3nccc3nc2-c2ccc(CN3CCC(c4n[nH]c(-c5ccccn5)n4)CC3)cc2)cc1 [Example 19, 6-phenyl-5-(4-{[4-(5-pyridin-2-yl-1,2,4-triazol-3-yl)piperidin-1-yl]methyl}phenyl)pyrazolo[1,5-a]pyrimidine]
[1]
  IC50: 1000 to 10000 nM
[2]
  IC50: < 1000 nM

## CNc1c(-c2ccccc2)c(-c2ccc(CN3CCC(c4n[nH]c(-c5ccccn5)n4)CC3)cc2)nc2nccn12 [Example 10, N-methyl-6-phenyl-7-(4-{[4-(5-pyridin-2-yl-1,2,4-triazol-3-yl)piperidin-1-yl]methyl}phenyl)imidazo[1,2-a]pyrimidin-5-amine]
[1]
  IC50: < 1000 nM
[2]
  IC50: 1000 to 10000 nM

## c1ccc(-c2cn3ccnc3nc2-c2ccc(CN3CCC(c4cc(-c5ccccn5)n[nH]4)CC3)cc2)cc1 [Example 5, 6-phenyl-7-(4-{[4-(3-pyridin-2-yl-pyrazol-5-yl)piperidin-1-yl]methyl}phenyl)imidazo[1,2-a]pyrimidine]
[1]
  IC50: 1000 to 10000 nM
[2]
  IC50: < 1000 nM

## c1ccc(-c2cn3nc(C4CCC4)nc3nc2-c2ccc(CN3CCC(c4n[nH]c(-c5ccccn5)n4)CC3)cc2)cc1 [Example 7, 2-cyclobutyl-6-phenyl-5-(4-{[4-(5-pyridin-2-yl-1,2,4-triazol-3-yl)piperidin-1-yl]methyl}phenyl)[1,2,4]triazolo[1,5-a]pyrimidine]
[1]
  IC50: < 1000 nM
[2]
  IC50: < 1000 nM

## c1ccc(-c2cn3ccnc3nc2-c2ccc(CN3CCC(c4n[nH]c(-c5ncccn5)n4)CC3)cc2)cc1 [Example 18, 6-phenyl-7-(4-{[4-(5-pyrimidin-2-yl-1,2,4-triazol-3-yl)piperidin-1-yl]methyl}phenyl)imidazo[1,2-a]pyrimidine]
[1]
  IC50: 1000 to 10000 nM
[2]
  IC50: 1000 to 10000 nM

## Cc1cnc2nc(-c3ccc(CN4CCC(c5n[nH]c(-c6ccccn6)n5)CC4)cc3)c(-c3ccccc3)cn12 [Example 14, 3-methyl-6-phenyl-7-(4-{[4-(5-pyridin-2-yl-1,2,4-triazol-3-yl)piperidin-1-yl]methyl}phenyl)imidazo[1,2-a]pyrimidine]
[1]
  IC50: 1000 to 10000 nM
[2]
  IC50: < 1000 nM

## c1ccc(-c2cn3nc(C4CC4)nc3nc2-c2ccc(CN3CCC(c4n[nH]c(-c5ccccn5)n4)CC3)cc2)cc1 [Example 4, 2-cyclopropyl-6-phenyl-5-(4-{[4-(5-pyridin-2-yl-1,2,4-triazol-3-yl)piperidin-1-yl]methyl}phenyl)[1,2,4]triazolo[1,5-a]pyrimidine]
[1]
  IC50: 1000 to 10000 nM
[2]
  IC50: < 1000 nM

## C#Cc1cnc2nc(-c3ccc(CN4CCC(c5n[nH]c(-c6ccccn6)n5)CC4)cc3)c(-c3ccccc3)cn12 [Example 13, 3-ethynyl-6-phenyl-7-(4-{[4-(5-pyridin-2-yl-1,2,4-triazol-3-yl)piperidin-1-yl]methyl}phenyl)imidazo[1,2-a]pyrimidine]
[1]
  IC50: 1000 to 10000 nM
[2]
  IC50: < 1000 nM

## c1ccc(-c2cn3ccnc3nc2-c2ccc(CN3CCC(c4n[nH]c(-c5cnccn5)n4)CC3)cc2)cc1 [Example 21, 6-phenyl-7-(4-{[4-(5-pyrazin-2-yl-1,2,4-triazol-3-yl)piperidin-1-yl]methyl}phenyl)imidazo[1,2-a]pyrimidine]
[1]
  IC50: 1000 to 10000 nM
[2]
  IC50: < 1000 nM

## c1ccc(-c2cn3ccnc3nc2-c2ccc(CN3CCC(c4nc(-c5ccccn5)n[nH]4)CC3)cc2)cc1 [Example 1, 6-phenyl-7-(4-{[4-(3-pyridin-2-yl-1,2,4-triazol-5-yl)piperidin-1-yl]methyl}phenyl)imidazo[1,2-a]pyrimidine]
[1]
  IC50: < 1000 nM
[2]
  IC50: < 1000 nM

## N#Cc1cnc2nc(-c3ccc(CN4CCC(c5n[nH]c(-c6ccccn6)n5)CC4)cc3)c(-c3ccccc3)cn12 [Example 8, 6-phenyl-7-(4-{[4-(5-pyridin-2-yl-1,2,4-triazol-3-yl)piperidin-1-yl]methyl}phenyl)imidazo[1,2-a]pyrimidine-3-carbonitrile]
[1]
  IC50: 1000 to 10000 nM
[2]
  IC50: < 1000 nM

## CCc1cn2cc(-c3ccccc3)c(-c3ccc(CN4CCC(c5n[nH]c(-c6ccccn6)n5)CC4)cc3)nc2n1 [Example 17, 2-ethyl-6-phenyl-7-(4-{[4-(5-pyridin-2-yl-1,2,4-triazol-3-yl)piperidin-1-yl]methyl}phenyl)imidazo[1,2-a]pyrimidine]
[1]
  IC50: 1000 to 10000 nM
[2]
  IC50: < 1000 nM

## c1ccc(-c2cn3ccnc3nc2-c2ccc(CN3CCC(n4cnc(-c5ccccn5)c4)CC3)cc2)cc1 [Example 20, 6-phenyl-7-(4-{[4-(4-pyridin-2-yl-imidazol-1-yl)piperidin-1-yl]methyl}phenyl)imidazo[1,2-a]pyrimidine]
[1]
  IC50: 1000 to 10000 nM
[2]
  IC50: < 1000 nM
